Patent US5585381A, “Pyrimidine derivatives and pharmaceutical composition” (Kureha Chemical Industry Co., Ltd., priority 1994, dated 1996)

Columns and labels:
[1] = target: T1, angiotensin II receptor subtype 1 (AT1) (Oryctolagus cuniculus, UniProt P34976); test: Binding to angiotensin II receptor subtype 1 (AT1); set-up: species or system rabbits (adrenal glands); settings: 3H-angiotensin II tracer; for IC50: room temperature, 3 hours
T1 construct: from adrenal glands in rabbits; from tissue; host or cells: rabbit adrenal glands
T1 sequence (P34976 1-359): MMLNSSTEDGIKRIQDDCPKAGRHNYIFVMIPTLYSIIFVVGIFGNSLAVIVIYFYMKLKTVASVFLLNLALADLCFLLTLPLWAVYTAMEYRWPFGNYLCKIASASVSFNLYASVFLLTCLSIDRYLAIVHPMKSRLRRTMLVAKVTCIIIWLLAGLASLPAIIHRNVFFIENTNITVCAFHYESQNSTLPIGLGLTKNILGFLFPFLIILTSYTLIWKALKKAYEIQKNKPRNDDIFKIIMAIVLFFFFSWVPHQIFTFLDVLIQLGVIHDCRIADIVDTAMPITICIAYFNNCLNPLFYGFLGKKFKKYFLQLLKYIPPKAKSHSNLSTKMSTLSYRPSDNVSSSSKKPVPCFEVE
Experimental: (§1) In this Example, the affinity to the angiotensin II receptor subtype 1 or subtype 2 was evaluated by a binding assay in accordance with the method described in Biochem. Pharmacol., 33, 4057-4062 (1984).
(§2) Specifically, the measurement of the total binding in the presence of each drug was performed as follows:
(§3) A mixture (final volume=0.25 ml) of a drug in a given concentration (the drug was dissolved in DMSO, and diluted to a double volume with a buffer attached to a drug discovery system to prepare sample for the assay; 0,025 ml), a tracer (0.025 ml), and receptors (0.2 ml) was incubated [in the case of the angiotensin II receptor subtype 1 (AT1), at room temperature for 3 hours, and in the case of the subtype 2 (AT2), at 37° C. for 1 hour]. Then, the reaction mixture was filtered with suction (GF/C filter was used in AT1, and GF/B filter was used in AT2). The filter papers after filtration with suction (the tracer bound to the receptors) were counted by a γ-well counter (ARC-500, Aloka). The non-specific bindings were measured by repeating the above method, except that a large excess amount of a displacer was added. The specific binding of the drug in the given concentration was calculated by subtracting the non-specific binding from the total binding, respectively.
(§4) In AT1 and AT2, the percentages to inhibit the bindings of radioactive ligands (tracer) to receptors by the drugs to be tested (IC50 value of concentration to show 50% inhibition, or binding inhibition % in 100 μM) were measured, using the drugs to be tested and control drugs in the given concentration.

[2] = target: T2, angiotensin II receptor subtype 2 (AT2) (Bos taurus, UniProt G5E6F7); test: Binding to angiotensin II receptor subtype 2 (AT2); set-up: species or system bovine (cerebellar cortex); settings: 125I-Tyr4-angiotensin II tracer, 37° C., 1 hour
T2 construct: from cerebellar cortex in bovine; from tissue; host or cells: bovine cerebellar cortex
T2 sequence (G5E6F7 1-362): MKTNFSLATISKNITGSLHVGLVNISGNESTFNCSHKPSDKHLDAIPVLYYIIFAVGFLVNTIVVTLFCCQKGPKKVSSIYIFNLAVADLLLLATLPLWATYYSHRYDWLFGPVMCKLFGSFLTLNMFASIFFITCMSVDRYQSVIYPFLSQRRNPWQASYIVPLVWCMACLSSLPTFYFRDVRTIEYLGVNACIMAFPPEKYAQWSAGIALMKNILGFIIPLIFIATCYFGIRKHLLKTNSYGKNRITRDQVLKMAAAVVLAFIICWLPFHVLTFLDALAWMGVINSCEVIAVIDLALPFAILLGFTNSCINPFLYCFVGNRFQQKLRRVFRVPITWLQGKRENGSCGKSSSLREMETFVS
Experimental: as §1, §2, §3, §4
from cerebellar cortex in bovine
tracer: ^125 I-Tyr^4 -angiotensin II

[3] = test system: kidney disease model rats; test: Action to depress blood pressure in kidney disease model rats (tail cuff); format: in vivo, Sprague-Dawley female rats; settings: 20 mg/kg per os; after two days; control 210 mmHg
Experimental: (§5) The compounds of the present invention and the reference substance were forcedly administered per os to kidney disease model rats, and the action to depress blood pressure was observed. The kidney disease model rats were prepared by ligature of branches of renal artery in accordance with the conventional method, that is, the left hilum renalis of Sprague-Dawley female rats was exposed under anesthesia, and one of four secondary branches of renal artery was left unligated, while the remaining three branches were ligated, respectively. After a week, the hilum renalis (artery, vein, and ureter) of the right kidney were further ligated to thereby prepare the rats whose renal function was lowered to approximately 1/8 of the normal function. Each group consisted of eight rats. The drugs to be tested (20 mg/kg) were administered to each administering group, and only water was administered to control group. After two days from the administration, the systolic blood pressure was measured by the tail cuff method using a blood pressure measuring apparatus (UR5000; Ueda).

[4] = test system: kidney disease model rats; test: Renal function indicatory value (action to kidney diseases); format: in vivo, Sprague-Dawley female rats; settings: 20 mg/kg/day per os, two weeks; for Creatinine clearance (CCr): control 0.20; for Creatinine (serum, Scr): control 2.0; for Urea nitrogen (BUN): control 100
Experimental: The kidney disease model rats were prepared by ligature of branches of renal artery in accordance with the conventional method, that is, the left hilum renalis of Sprague-Dawley female rats was exposed under anesthesia, and one of four secondary branches of renal artery was left unligated, while the remaining three branches were ligated, respectively. […] Each group consisted of eight rats. The drugs to be tested (20 mg/kg) were administered to each administering group, and only water was administered to control group. After two days from the administration, the systolic blood pressure was measured by the tail cuff method using a blood pressure measuring apparatus (UR5000; Ueda).
The kidney disease model rats were prepared as in Example 21. Fifteen groups (8 rats per group) were sleeked in a manner so that there were no major differences between each group in the serum creatinine value and the urea nitrogen value indicating renal function. The rats in each group were allowed to freely take up feed and water. […] To the rats in the control group, only water was forcedly administered per os every day. After two weeks, 0.2 ml of blood was collected from the carotid artery of the rat under anesthesia, and centrifuged to obtain serum. Using 25 μl of the serum, serum creatinine (Scr) was measured by a creatinine analytical instrument (Beckman). Using 10 μl of the serum, urea nitrogen (BUN) was measured by a BUN analytical instrument (Beckman). Creatinine clearance was evaluated as follows:
After serum creatinine measurement, rats were placed in urinary metabolic cages for 24 hours to collect urine. Urinary creatine concentration (Ucr) was measured by a creatinine analytical instrument, and total volume of urination (Uvol) was also measured. Creatinine clearance (CCr) was calculated by the following formula: [formula]

[5] = test system: kidney disease model rats; test: Action to survival time of kidney diseased animals; format: in vivo, Sprague-Dawley female rats; settings: 20 mg/kg/day per os; observation eight weeks (upper limit); control 5.0
Experimental: as §5
The kidney disease model rats were prepared as in Example 21. Fifteen groups (8 rats per group) were prepared in a manner so that there was no major difference between the groups in the serum creatinine value and the urea nitrogen value indicating renal function. The rats in each group were allowed to freely take up feed and water. […] To the rats in the control group, only water was forcedly administered per os every day. If kidney diseases are aggravated, the rat will die of uremia. Thus, the survival time was observed as comprehensive indication of the improvement effect on the kidney diseases. The observation period was eight weeks. Thus if all rats survived, the average survival time is eight weeks and it is an upper limit.

| Compound | inhibition at 100 µM [1] | inhibition at 100 µM [2] | Blood pressure (average systolic) [3] | Creatinine clearance (CCr) [4] | Creatinine (serum, Scr) [4] | Urea nitrogen (BUN) [4] | Average survival time [5] | IC50 [1] |
| --- | --- | --- | --- | --- | --- | --- | --- | --- |
| CCCCC(=O)Nc1c(NCc2ccc(OC)cc2)ncnc1NCc1ccc(C(=O)O)cc1 [Compound No. 10] | 6% | 0% | 208 mmHg | 0.33 mL/min | 1.6 mg/dL | 81 mg/dL | 7.0 weeks | – |
| CCCCC(=O)Nc1c(NCc2ccc(C(=O)O)cc2)ncnc1OC [compound 2, 4-[[(6-methoxy-5-valeramido)pyrimidin-4-yl]aminomethyl]benzoic acid] | – | 0% | 201 mmHg | 0.35 mL/min | 1.6 mg/dL | 78 mg/dL | 7.5 weeks | 28 µM |
| CCCCC(=O)Nc1c(NCc2ccc(C(=O)O)cc2)ncnc1N(C)Cc1ccccc1 [Compound No. 61, 4-[[(6-N-benzylmethylamino-5-valeramido)pyrimidin-4-yl]aminomethyl]benzoic acid] | 42% | 0% | 205 mmHg | 0.32 mL/min | 1.6 mg/dL | 81 mg/dL | 6.9 weeks | – |
| CCCCC(=O)Nc1c(NCCc2ccccc2)ncnc1NCc1ccc(C(=O)O)cc1 [Compound No. 8, 4-[[(6-phenethylamino-5-valeramido)pyrimidin-4-yl]aminomethyl]benzoic acid] | 0% | 0% | 203 mmHg | 0.33 mL/min | 1.6 mg/dL | 79 mg/dL | 7.1 weeks | – |
| CCCCC(=O)Nc1c(NCc2ccccc2)ncnc1NCc1ccc(C(=O)O)cc1 [Compound No. 7, 4-[[(6-benzylamino-5-valeramido)pyrimidin-4-yl]aminomethyl]benzoic acid] | 1% | 0% | 208 mmHg | 0.33 mL/min | 1.6 mg/dL | 80 mg/dL | 7.0 weeks | – |
| CCCCC(=O)Nc1c(NCCc2ccccc2)ncnc1NCc1ccc(OC)cc1 [compound 90, 4-[[(6-phenethylamino-5-valeramido)pyrimidin-4-yl]aminomethyl]anisole] | 20% | 0% | 208 mmHg | 0.29 mL/min | 1.7 mg/dL | 82 mg/dL | 6.9 weeks | – |
| CCCCC(=O)Nc1c(Cl)ncnc1NCc1ccc(OC)cc1 [Compound No. 48, 4-[[(6-Chloro-5-Valeramido)pyrimidin-4-yl]aminomethyl]anisole] | 0% | 0% | 207 mmHg | 0.30 mL/min | 1.7 mg/dL | 83 mg/dL | 6.9 weeks | – |
| CCCCC(=O)Nc1c(NCc2ccc(C(=O)O)cc2)ncnc1OCc1ccccc1 [Compound No. 11, 4-[[(6-benzyoloxy-5-valermido)pyrimidin-4-yl]aminomethyl]benzoic acid] | – | – | 202 mmHg | 0.35 mL/min | 1.6 mg/dL | 78 mg/dL | 7.5 weeks | 15 µM |
| CCCCC(=O)Nc1c(NCc2ccccc2)ncnc1NCc1ccc(OC)cc1 [Compound No. 89, 4-[[(6-benzylamino-5-valeramido)pyrimidin-4-yl]aminomethyl]anisole] | 11% | 0% | 204 mmHg | 0.33 mL/min | 1.6 mg/dL | 80 mg/dL | 7.0 weeks | – |
